Measurements published in patent US20240360139A1, “BLOOD BRAIN BARRIER PENETRATING SELECTIVE INHIBITORS OF ROCK2 PROTEIN KINASES AND USES THEREOF” (GENOSCO Inc., priority 2023, published 2024).
pIC50: −log10 of the molar value.

Tests used:
[1] = biological target: T1, Recombinant ROCK1 (amino acids 1-477) (Homo sapiens, UniProt Q13464); experiment: ROCK inhibition assay, LANCE Ultra TR-FRET (ROCK1); type: biochemical; settings: 1 mM of ATP
T1 construct: Recombinant ROCK1 (amino acids 1-477)
Method: (§1) Kinase IC50 was determined through an in vitro assay based on LANCE Ultra TR-FRET (Time-Resolved Fluorescence Resonance Energy Transfer) homogeneous technologies method 5 (Perkin Elmer). Recombinant ROCK1 (amino acids 1-477) and ROCK2 (amino acids 5-554) proteins were purchased from Carna Biosciences and SignalChem. Compound activities were measured by Envision and IC50s were calculated. The assays were performed in white LUMITRAC™ 200 96 well half-area microplates from Greiner Bio-One. The kinase reaction buffer consisted of 50 mM HEPES pH 7.5, 1 mM EGTA, 10 mM MgCl2, 2 mM DTT and 0.01% 10 Tween-20. Kinases were incubated with 50 nM (ULight-CREBtide) substrate in the presence of 1 mM (ROCK1) or 1 mM (ROCK2) of ATP. The kinase reaction was carried out for 1 hour before addition of a stopping buffer to a final of 10 mM EDTA and 0.6 nM of LANCE Ultra Europium anti-phospho-CREB (Ser133) antibody (PerkinElmer TRF0200) in LANCE detection buffer. All assay incubations were performed at room temperature, and the microplates were sealed with polyester film during that time. The reaction was incubated for 1 hour, and the signal was read in Envision in TR-FRET mode (excitation at 320 nm and emission at 615/665 nm).
(§2) As used herein, a way to describe potency of inhibitory activity (nM) is a value of inhibitory activity at 50% (IC50).

[2] = biological target: T2, Recombinant ROCK2 (amino acids 5-554) (Homo sapiens, UniProt O75116); experiment: ROCK inhibition assay, LANCE Ultra TR-FRET (ROCK2); type: biochemical; settings: 1 mM of ATP
T2 construct: ROCK2 (amino acids 5-554)
T2 sequence (O75116 5-554): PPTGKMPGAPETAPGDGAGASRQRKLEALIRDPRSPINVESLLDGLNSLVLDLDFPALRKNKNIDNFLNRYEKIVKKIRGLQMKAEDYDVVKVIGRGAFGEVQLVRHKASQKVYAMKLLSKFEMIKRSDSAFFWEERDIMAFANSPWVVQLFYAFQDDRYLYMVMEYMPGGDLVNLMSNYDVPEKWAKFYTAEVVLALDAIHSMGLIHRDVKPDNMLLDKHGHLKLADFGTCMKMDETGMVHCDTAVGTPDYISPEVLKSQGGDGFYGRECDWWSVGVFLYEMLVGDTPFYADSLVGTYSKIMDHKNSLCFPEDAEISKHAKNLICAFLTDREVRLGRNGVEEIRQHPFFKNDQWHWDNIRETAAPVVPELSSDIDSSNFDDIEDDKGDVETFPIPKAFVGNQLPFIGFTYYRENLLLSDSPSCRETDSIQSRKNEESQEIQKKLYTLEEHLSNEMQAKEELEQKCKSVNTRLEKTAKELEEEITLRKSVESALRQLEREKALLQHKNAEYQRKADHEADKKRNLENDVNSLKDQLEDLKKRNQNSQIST
Method: as §1, §2

T1 sequence (Q13464 1-477): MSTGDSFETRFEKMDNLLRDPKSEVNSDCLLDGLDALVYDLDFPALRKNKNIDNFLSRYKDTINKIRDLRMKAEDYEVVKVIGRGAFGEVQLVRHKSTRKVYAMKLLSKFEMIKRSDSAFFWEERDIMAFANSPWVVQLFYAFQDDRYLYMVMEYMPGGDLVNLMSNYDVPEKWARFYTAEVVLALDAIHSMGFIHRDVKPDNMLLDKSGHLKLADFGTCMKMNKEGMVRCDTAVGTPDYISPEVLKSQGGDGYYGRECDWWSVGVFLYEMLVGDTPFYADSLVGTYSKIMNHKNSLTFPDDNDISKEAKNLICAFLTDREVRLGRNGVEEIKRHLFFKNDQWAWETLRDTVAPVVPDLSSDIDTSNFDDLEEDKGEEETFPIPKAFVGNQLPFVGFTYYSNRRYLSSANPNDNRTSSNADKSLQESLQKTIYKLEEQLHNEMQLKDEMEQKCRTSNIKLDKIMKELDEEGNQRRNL

| Structure (SMILES) | pIC50 [1] | pIC50 [2] |
| --- | --- | --- |
| CN1CC[C@@H]1Cn1cc(C(=O)C2COc3ccc(Cl)cc3C2)c2ccc(-c3cn[nH]c3F)cc21 (some centres unmarked) [Compound 1-57] | < 6.30 | 6.30 to 6.70 |
| CCN1CC[C@@H]1Cn1cc(C(=O)C2COc3ccc(OC)cc3C2)c2ccc(-c3cn[nH]c3Cl)cc21 (some centres unmarked) [Compound 1-58] | < 6.30 | 6.70 to 7.68 |
| CCN1CC[C@@H]1Cn1cc(C(=O)[C@@H]2COc3ccc(OC)cc3C2)c2ccc(-c3cn[nH]c3Cl)cc21 [Compound 1-59] | < 6.30 | > 7.70 |
| NCCn1cc(C(=O)C2COc3ccc(Cl)cc3C2)c2cnc(-c3c[nH]nc3Cl)cc21 (centres unmarked) [Compound 2-1, [1-(2-aminoethyl)-6-(3-chloro-1H-pyrazol-4-yl)pyrrolo[3,2-c]pyridin-3-yl]-(6-chlorochroman-3-yl) methanone] | 6.70 to 7.68 | > 7.70 |
| CC(N)Cn1cc(C(=O)C2COc3ccc(F)cc3C2)c2cnc(-c3c[nH]nc3Cl)cc21 (centres unmarked) [Compound 2-2] | 6.70 to 7.68 | > 7.70 |
| NCCn1cc(C(=O)C2COc3ccc(F)cc3C2)c2cnc(-c3c[nH]nc3Cl)cc21 (centres unmarked) [Compound 2-3] | 6.70 to 7.68 | > 7.70 |
| NCCn1cc(C(=O)C2COc3ccc(F)cc3C2)c2ccc(-c3c[nH]nc3Cl)cc21 (centres unmarked) [Compound 2-4] | > 7.70 | > 7.70 |
| C[C@@H](N)Cn1cc(C(=O)C2COc3ccc(Cl)cc3C2)c2ccc(-c3c[nH]nc3Cl)cc21 (some centres unmarked) [Compound 2-5] | 6.70 to 7.68 | > 7.70 |
| COc1n[nH]cc1-c1ccc2c(C(=O)C3COc4ccc(Cl)cc4C3)cn(C[C@@H](C)N)c2c1 (some centres unmarked) [Compound 2-6] | 6.70 to 7.68 | > 7.70 |
| C[C@H](N)Cn1cc(C(=O)C2COc3ccc(Cl)cc3C2)c2ccc(-c3c[nH]nc3Cl)cc21 (some centres unmarked) [Compound 2-7] | > 7.70 | > 7.70 |
| C[C@H](N)Cn1cc(C(=O)C2COc3ccc(Cl)cc3C2)c2ccc(-c3cn[nH]c3F)cc21 (some centres unmarked) [Compound 2-8] | < 6.30 | < 6.30 |
| COc1n[nH]cc1-c1ccc2c(C(=O)C3COc4ccc(Cl)cc4C3)cn(C[C@H](C)N)c2c1 (some centres unmarked) [Compound 2-9] | 6.30 to 6.70 | > 7.70 |
| C[C@@H](Cn1cc(C(=O)C2COc3ccc(Cl)cc3C2)c2ccc(-c3cn[nH]c3Cl)cc21)N(C)C (stereo partly drawn) [Compound 2-12, (6-chlorochroman-3-yl)-[6-(5-chloro-1H-pyrazol-4-yl)-1-[(2S)-2-(dimethylamino)propyl]indol-3-yl]methanone] | < 6.30 | > 7.70 |
| CN(C)C1(Cn2cc(C(=O)C3COc4ccc(Cl)cc4C3)c3ccc(-c4cn[nH]c4Cl)cc32)CC1 (centres unmarked) [Compound 2-13] | 6.70 to 7.68 | 6.70 to 7.68 |
| COc1[nH]ncc1-c1ccc2c(C(=O)C3COc4ccc(Cl)cc4C3)cn(C[C@@H](C)N(C)C)c2c1 (some centres unmarked) [Compound 2-14] | 6.30 to 6.70 | > 7.70 |
| C[C@H](Cn1cc(C(=O)C2COc3ccc(Cl)cc3C2)c2ccc(-c3cn[nH]c3Cl)cc21)N(C)C (some centres unmarked) [Compound 2-15] | 6.30 to 6.70 | > 7.70 |
| C[C@H](Cn1cc(C(=O)C2COc3ccc(Cl)cc3C2)c2ccc(-c3cn[nH]c3F)cc21)N(C)C (some centres unmarked) [Compound 2-16] | < 6.30 | > 7.70 |
| C[C@H](Cn1cc(C(=O)[C@@H]2COc3ccc(Cl)cc3C2)c2ccc(-c3cn[nH]c3F)cc21)N(C)C [Compound 2-17] | 6.30 to 6.70 | > 7.70 |
| O=C(c1cn(CCN2CCC2)c2nc(-c3c[nH]nc3Cl)ccc12)C1COc2ccc(F)cc2C1 (centres unmarked) [Compound 3-1, [1-[2-(azetidin-1-yl)ethyl]-6-(3-chloro-1H-pyrazol-4-yl)pyrrolo[2,3-b]pyridin-3-yl]-(6-fluorochroman-3-yl)methanone] | < 6.30 | > 7.70 |
| CNCCn1cc(C(=O)C2COc3ccc(F)cc3C2)c2cnc(-c3c[nH]nc3Cl)cc21 (centres unmarked) [Compound 3-2] | < 6.30 | 6.70 to 7.68 |

| Structure (SMILES) | pIC50 [1] | pIC50 [2] |
| --- | --- | --- |
| CNCCn1cc(C(=O)C2COc3ccc(F)cc3C2)c2ccc(-c3c[nH]nc3Cl)nc21 (centres unmarked) [Compound 3-3] | < 6.30 | 6.70 to 7.68 |
| COc1n[nH]cc1-c1ccc2c(C(=O)C3COc4ccc(Cl)cc4C3)cn(CCN3CCC3)c2c1 (centres unmarked) [Compound 3-4, [1-[2-(azetidin-1-yl)ethyl]-6-(3-methoxy-1H-pyrazol-4-yl)indol-3-yl]-(6-chlorochroman-3-yl)methanone] | < 6.30 | 6.30 to 6.70 |
| CNCCn1cc(C(=O)C2COc3ccc(F)cc3C2)c2ccc(-c3c[nH]nc3Cl)cc21 (centres unmarked) [Compound 3-5] | 6.30 to 6.70 | > 7.70 |
| COc1n[nH]cc1-c1ccc2c(C(=O)C3COc4ccc(F)cc4C3)cn(CCCN(C)C)c2c1 (centres unmarked) [Compound 3-6] | < 6.30 | 6.70 to 7.68 |
| COc1n[nH]cc1-c1ccc2c(C(=O)[C@@H]3COc4ccc(Cl)cc4C3)cn(CCCN(C)C)c2c1 [Compound 3-7] | 6.30 to 6.70 | 6.70 to 7.68 |
| COc1n[nH]cc1-c1ccc2c(C(=O)[C@H]3COc4ccc(Cl)cc4C3)cn(CCCN(C)C)c2c1 [Compound 3-8] | < 6.30 | 6.30 to 6.70 |
| CNCCn1cc(C(=O)C2COc3ccc(Cl)cc3C2)c2ccc(-c3cn[nH]c3Cl)cc21 (centres unmarked) [Compound 3-9] | < 6.30 | 6.30 to 6.70 |
| CCN(C)CCn1cc(C(=O)C2COc3ccc(Cl)cc3C2)c2ccc(-c3cn[nH]c3Cl)cc21 (centres unmarked) [Compound 3-10] | < 6.30 | 6.70 to 7.68 |
| CCN(C)CCn1cc(C(=O)C2COc3ccc(Cl)cc3C2)c2ccc(-c3cn[nH]c3OC)cc21 (centres unmarked) [Compound 3-11] | < 6.30 | 6.70 to 7.68 |
| CCN(CC)CCn1cc(C(=O)C2COc3ccc(Cl)cc3C2)c2ccc(-c3cn[nH]c3Cl)cc21 (centres unmarked) [Compound 3-12] | < 6.30 | 6.70 to 7.68 |
| CCN(CC)CCn1cc(C(=O)C2COc3ccc(Cl)cc3C2)c2ccc(-c3cn[nH]c3OC)cc21 (centres unmarked) [Compound 3-13] | < 6.30 | > 7.70 |
| CCN(CC)CCn1cc(C(=O)[C@@H]2COc3ccc(Cl)cc3C2)c2ccc(-c3cn[nH]c3OC)cc21 [Compound 3-14] | < 6.30 | > 7.70 |
| CCN(CC)CCn1cc(C(=O)[C@@H]2COc3ccc(OC)cc3C2)c2ccc(-c3cn[nH]c3Cl)cc21 [Compound 3-20] | 6.30 to 6.70 | > 7.70 |
| CCN(CC)CCn1cc(C(=O)[C@@H]2COc3ccc(OC)cc3C2)c2ccc(-c3cn[nH]c3Cl)cc21 [Compound 3-21] | 6.30 to 6.70 | 6.70 to 7.68 |
| CCN(CC)CCn1cc(C(=O)C2COc3ccc(OC)cc3C2)c2ccc(-c3cn[nH]c3F)cc21 (centres unmarked) [Compound 3-22] | 6.30 to 6.70 | > 7.70 |
| CNCCn1cc(C(=O)C2COc3ccc(OC)cc3C2)c2ccc(-c3cn[nH]c3Cl)cc21 (centres unmarked) [Compound 3-23] | < 6.30 | > 7.70 |
| CCN(C)CCn1cc(C(=O)C2COc3ccc(OC)cc3C2)c2ccc(-c3cn[nH]c3Cl)cc21 (centres unmarked) [Compound 3-25] | 6.30 to 6.70 | > 7.70 |
| CCN(C)CCn1cc(C(=O)[C@@H]2COc3ccc(OC)cc3C2)c2ccc(-c3cn[nH]c3Cl)cc21 [Compound 3-26] | < 6.30 | > 7.70 |
| CCN(C)CCn1cc(C(=O)[C@@H]2COc3ccc(OC)cc3C2)c2ccc(-c3cn[nH]c3Cl)cc21 [Compound 3-28] | < 6.30 | 6.70 to 7.68 |
| CCN(C)CCn1cc(C(=O)C2COc3ccc(OC)cc3C2)c2ccc(-c3cn[nH]c3F)cc21 (centres unmarked) [Compound 3-30] | 6.30 to 6.70 | 6.70 to 7.68 |
